system: Bovine cardiac myofibrils; test: In vitro model of dose-dependent myofibril ATPase modulation (AC1.4, pyruvate kinase/lactate dehydrogenase-coupled ATPase assay at pCa25); format: biochemical; details: concentration at which ATPase activity was 1.4-fold higher than the bottom of the dose curve, mean of a minimum of two independent tests
How it was run: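 Absorbance at 340 nm tracked ATP hydrolysis through pyruvate kinase/lactate dehydrogenase coupling (0.5 mM NADH, 1.5 mM PEP). Myofibrils from detergent-homogenized bovine heart, 1 mM ATP, pH 6.80, EGTA/CaCl2 buffering. Dose-response curves fitted with a four-parameter Hill equation.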

| AC1.4 [µM] | Structure (SMILES) |
| --- | --- |
| 2.4285 | CS(=O)(=O)c1cccc(C(=O)N2CCC(F)(F)CC2C(=O)N[C@@H](c2ccc(C(F)(F)F)cc2F)C2CC2)c1 (stereo partly drawn) [Example 525, N-((R)-cyclopropyl(2-fluoro-4-(trifluoromethyl)phenyl)methyl)-4,4-difluoro-1-(3-(methylsulfonyl)benzoyl)piperidine-2-carboxamide] |
| 2.5923 | CS(=O)(=O)c1ccnc(C(=O)N2CCC[C@@H]2C(=O)N[C@@H](c2ccc(C(F)(F)F)cc2F)C2CC2)c1 [Example 526, N-((R)-cyclopropyl(2-fluoro-4-(trifluoromethyl)phenyl)methyl)-1-((4-(methylsulfonyl)-2-pyridinyl)carbonyl)-D-prolinamide] |
| 2.5985 | O=C(N[C@@H](c1ccc(C(F)(F)F)cc1F)C1COC1)[C@H]1C[C@H]2C[C@H]2N1C(=O)c1cncc(C(F)(F)F)c1 [Example 527, (1R,3R,5R)-N-((R)-(2-fluoro-4-(trifluoromethyl)phenyl)(3-oxetanyl)methyl)-2-((5-(trifluoromethyl)-3-pyridinyl)carbonyl)-2-azabicyclo[3.1.0]hexane-3-carboxamide] |
| 2.4294 | CS(=O)(=O)c1cccc(C(=O)N2C[C@@H](F)C[C@@H]2C(=O)N[C@@H](c2ccc(C(F)(F)F)cc2F)C2COC2)c1 [Example 528, (4S)-4-fluoro-N-((R)-(2-fluoro-4-(trifluoromethyl)phenyl)(3-oxetanyl)methyl)-1-(3-(methylsulfonyl)benzoyl)-D-prolinamide] |
| 2.4895 | O=C(N[C@@H](c1cc(F)c(Cl)cc1F)C1COC1)[C@H]1C[C@H]2C[C@H]2N1C(=O)c1cccc(C(F)(F)F)n1 [Example 529, (1R,3R,5R)-N-((R)-(4-chloro-2,5-difluorophenyl)(3-oxetanyl)methyl)-2-((6-(trifluoromethyl)-2-pyridinyl)carbonyl)-2-azabicyclo[3.1.0]hexane-3-carboxamide] |
| 2.614 | O=C(N[C@@H](c1ccc(C(F)(F)F)cc1F)C1CC1)[C@H]1CCCN1C(=O)c1cccc(C2CCC2)c1 [Example 530, 1-(3-cyclobutylbenzoyl)-N-((R)-cyclopropyl(2-fluoro-4-(trifluoromethyl)phenyl)methyl)-D-prolinamide] |
| 2.553 | NS(=O)(=O)c1cccc(C(=O)N2C[C@@H](F)C[C@@H]2C(=O)N[C@@H](c2ccc(C(F)(F)F)cc2F)C2CC2)c1 [Example 531, (4S)-N-((R)-cyclopropyl(2-fluoro-4-(trifluoromethyl)phenyl)methyl)-4-fluoro-1-(3-sulfamoylbenzoyl)-D-prolinamide] |
| 2.6285 | N#CC1CN(S(=O)(=O)N2CCC[C@H](C(=O)N3CCC[C@@H]3C(=O)NCc3cc(Cl)cc(C(F)(F)F)c3)C2)C1 [Example 532, N-(3-chloro-5-(trifluoromethyl)benzyl)-1-(((3S)-1-((3-cyano-1-azetidinyl)sulfonyl)-3-piperidinyl)carbonyl)-D-prolinamide] |
| 2.5883 | NC(=O)C1(c2cccc(C(=O)N3CCC[C@@H]3C(=O)N[C@@H](c3ccc(C(F)(F)F)cc3F)C3CC3)c2)CC1 [Example 533, 1-(3-(1-carbamoylcyclopropyl)benzoyl)-N-((R)-cyclopropyl(2-fluoro-4-(trifluoromethyl)phenyl)methyl)-D-prolinamide] |
| 2.611 | C[C@@H](NC(=O)[C@H]1C[C@H]2C[C@H]2N1C(=O)c1cccc(S(C)(=O)=O)c1)c1cc(F)c(Cl)cc1F [Example 534, (1R,3R,5R)-N-((1R)-1-(4-chloro-2,5-difluorophenyl)ethyl)-2-(3-(methylsulfonyl)benzoyl)-2-azabicyclo[3.1.0]hexane-3-carboxamide] |
| 2.69 | O=C(NCc1ccc(C(F)(F)F)cc1)[C@H]1CCCN1C(=O)[C@H]1CCCN(S(=O)(=O)N2CC(OC(F)(F)F)C2)C1 [Example 535, 1-(((3S)-1-((3-(trifluoromethoxy)-1-azetidinyl)sulfonyl)-3-piperidinyl)carbonyl)-N-(4-(trifluoromethyl)benzyl)-D-prolinamide] |
| 2.696 | CCCCCOC1CN(S(=O)(=O)N2CCC[C@H](C(=O)N3CCC[C@@H]3C(=O)NCc3ccc(C(F)(F)F)cc3)C2)C1 [Example 536, 1-(((3S)-1-((3-(pentyloxy)-1-azetidinyl)sulfonyl)-3-piperidinyl)carbonyl)-N-(4-(trifluoromethyl)benzyl)-D-prolinamide] |
| 2.7025 | O=C(NCc1ccc(C(F)(F)F)cc1)[C@H]1COCCN1C(=O)c1cccc(S(=O)(=O)N2CC3(CC3)C2)c1 [Example 537, (R)-4-(3-((5-azaspiro[2.3]hexan-5-yl)sulfonyl)benzoyl)-N-(4-(trifluoromethyl)benzyl)morpholine-3-carboxamide] |
| 2.753 | N#CC1CN(S(=O)(=O)N2CCC[C@@H](C(=O)N3CCC[C@@H]3C(=O)NCc3ccc(C(F)(F)F)cc3F)C2)C1 [Example 539, 1-(((3R)-1-((3-cyano-1-azetidinyl)sulfonyl)-3-piperidinyl)carbonyl)-N-(2-fluoro-4-(trifluoromethyl)benzyl)-D-prolinamide] |
| 2.7885 | C[C@@H](NC(=O)[C@H]1CCCN1C(=O)[C@H]1CCCN(S(=O)(=O)N2CC(C#N)C2)C1)c1ccc(C#N)cc1 [Example 540, 1-(((3S)-1-((3-cyano-1-azetidinyl)sulfonyl)-3-piperidinyl)carbonyl)-N-((1R)-1-(4-cyanophenyl)ethyl)-D-prolinamide] |
| 2.789 | Cc1cc(C(=O)N2[C@@H](C(=O)N[C@@H](c3ccc(C(F)(F)F)cc3F)C3COC3)C[C@H]3C[C@H]32)c(NCCO)cn1 [Example 541, (1R,3R,5R)-N-((R)-(2-fluoro-4-(trifluoromethyl)phenyl)(3-oxetanyl)methyl)-2-((5-((2-hydroxyethyl)amino)-2-methyl-4-pyridinyl)carbonyl)-2-azabicyclo[3.1.0]hexane-3-carboxamide] |
| 2.813 | CS(=O)(=O)c1cccc(C(=O)N2C(=O)OC[C@@H]2C(=O)N[C@@H](c2ccc(C(F)(F)F)cc2F)C2CC2)c1 [Example 543, (4R)-N-((R)-cyclopropyl(2-fluoro-4-(trifluoromethyl)phenyl)methyl)-3-(3-(methylsulfonyl)benzoyl)-2-oxo-1,3-oxazolidine-4-carboxamide] |
| 2.8175 | Cc1ccc(CNC(=O)[C@H]2CCCN2C(=O)[C@H]2CCCN(S(=O)(=O)N3CC(C#N)C3)C2)cc1C(F)(F)F [Example 544, 1-(((3S)-1-((3-cyano-1-azetidinyl)sulfonyl)-3-piperidinyl)carbonyl)-N-(4-methyl-3-(trifluoromethyl)benzyl)-D-prolinamide] |
| 2.818 | Cc1cc(C(=O)N2[C@@H](C(=O)N[C@@H](c3ccc(C(F)(F)F)cc3F)C3CC3)C[C@H]3C[C@H]32)c(NCCO)cn1 [Example 545, (1R,3R,5R)-N-((R)-cyclopropyl(2-fluoro-4-(trifluoromethyl)phenyl)methyl)-2-((5-((2-hydroxyethyl)amino)-2-methyl-4-pyridinyl)carbonyl)-2-azabicyclo[3.1.0]hexane-3-carboxamide] |
| 2.6257 | CS(=O)(=O)c1cccc(C(=O)N2C[C@@H](F)C[C@@H]2C(=O)N[C@@H](c2ccc(C(F)(F)F)cc2)C2COC2)c1 [Example 546, (4S)-4-fluoro-1-(3-(methylsulfonyl)benzoyl)-N-((R)-3-oxetanyl(4-(trifluoromethyl)phenyl)methyl)-D-prolinamide] |

— patent publication US11780826B2 (Amgen Inc., priority 2017, dated 2023)
